Patent US11957696B2 (Propella Therapeutics, Inc., priority 2021, dated 2024)

Tests used:
[1] = type: physicochemical
Procedure: The solids were filtered and analyzed by XRD to determine the resulting form(s). The solvents used in this study include: water, acetonitrile, isopropyl ether/acetonitrile (1:4), 2-butanol/water (1:1), 1-propanol/water (1:1), t-butanol/water (1:1), ethanol/water (1:1), THF/water (1:1), acetone/water (1:1), dioxane/water (1:1), 2-butanone/water (1:1), methanol, DMF/water (1:1), ethyl acetate/water (1:1), and heptane.
A competitive study was also carried out. […] Samples were stirred for 3 days and filtered.

[2] = IM injection of aqueous suspension and vegetable oil solution of abiraterone acetate; type: in vivo; conditions: vegetable oil solution compared with aqueous suspension, rats
Procedure: Typically, the abiraterone prodrugs of the present disclosure are formulated as a non-aqueous solution or suspension. […] For example, as detailed herein, IM injections of an aqueous suspension and a vegetable oil solution of the abiraterone acetate prodrug were evaluated in rats. […] Accordingly, in some embodiments, the abiraterone prodrug formulations herein can include an abiraterone prodrug of the present disclosure (e.g., compound of Formula I or II) dissolved or dispersed in a pharmaceutically acceptable carrier. In some embodiments, the pharmaceutically acceptable carrier can be any suitable nonaqueous vehicle suitable for injection, such as those described in U.S. Pharmacopeia. In some embodiments, the pharmaceutically acceptable carrier can be a pharmaceutically acceptable oil, e.g., a vegetable oil, castor oil, corn oil, sesame oil, cottonseed oil, peanut oil, poppy seed oil, tea seed oil, or soybean oil. In some embodiments, the pharmaceutically acceptable oil can be oils (e.g., described herein), suitable for use as vehicles for injection, e.g., meeting the criteria as described in the corresponding U.S. Pharmacopeia monograph. In some embodiments, the pharmaceutically acceptable oil can be an oil of vegetable origin suitable for use as vehicles for injection. […]

Structure (SMILES)	thermodynamic stability of polymorph [1]	blood plasma levels and duration of exposure of abiraterone [2]
CCCCCCCCCC(=O)O[C@H]1CC[C@@]2(C)C(=CC[C@@H]3[C@@H]2CC[C@]2(C)C(c4cccnc4)=CC[C@@H]32)C1 [Form A, abiraterone decanoate]	thermodynamically stable form under ambient conditions	
CC(=O)O[C@H]1CC[C@@]2(C)C(=CC[C@@H]3[C@@H]2CC[C@]2(C)C(c4cccnc4)=CC[C@@H]32)C1 [abiraterone acetate, (3β)-17-(3-Pyridyl)androsta-5, acetate]		highest blood plasma levels and the longest duration of exposure
